Assay results reported in ChEMBL document CHEMBL4145494, “Synthesis and biological evaluation of aurora kinases inhibitors based on N-trisubstituted pyrimidine scaffold” (Eur J Med Chem, 2018).
Active and inactive are the calls of the source. The rule behind the calls is not given here.

Columns and labels:
HeLa = assay: Antiproliferative activity against human HeLa cells after 48 hrs by CCK8 assay; format: functional, cell-based
MCF7 = assay: Antiproliferative activity against human MCF7 cells after 48 hrs by CCK8 assay; format: functional, cell-based; conditions: MCF7, 48 h
A-431 = assay: Antiproliferative activity against human A431 cells after 48 hrs by CCK8 assay; format: functional, cell-based; conditions: A-431, 48 h
HCT-116 = assay: Antiproliferative activity against human HCT116 cells after 48 hrs by CCK8 assay; format: functional, cell-based; conditions: HCT-116, 48 h
U-937 = assay: Antiproliferative activity against human U937 cells after 48 hrs by CCK8 assay; format: functional, cell-based; conditions: U-937, 48 h
Aurora kinase A = target: T1, Aurora kinase A (Homo sapiens, UniProt O14965); assay: Inhibition of AURKA (unknown origin) using FAM-labeled peptide substrate preincubated for 10 mins followed by substrate addition measured after 60 mins by caliper assay
T1 sequence (O14965 whole entry): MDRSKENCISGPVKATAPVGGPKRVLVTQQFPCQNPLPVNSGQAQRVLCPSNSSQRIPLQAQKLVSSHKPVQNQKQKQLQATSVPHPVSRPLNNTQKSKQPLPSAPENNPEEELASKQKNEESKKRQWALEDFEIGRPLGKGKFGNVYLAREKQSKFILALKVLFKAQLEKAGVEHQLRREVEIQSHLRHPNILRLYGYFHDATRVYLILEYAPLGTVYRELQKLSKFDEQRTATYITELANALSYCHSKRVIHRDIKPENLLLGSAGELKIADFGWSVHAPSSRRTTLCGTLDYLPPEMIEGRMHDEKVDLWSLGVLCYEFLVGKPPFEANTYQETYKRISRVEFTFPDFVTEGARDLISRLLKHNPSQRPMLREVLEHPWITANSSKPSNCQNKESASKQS

MDA-MB-231 [1] = assay: Antiproliferative activity against human MDA-MB-231 cells after 48 hrs by CCK8 assay; format: functional, cell-based; conditions: MDA-MB-231, 48 h
K562 = assay: Antiproliferative activity against human K562 cells after 48 hrs by CCK8 assay; format: functional, cell-based; conditions: K562, 48 h
Aurora kinase B = Aurora kinase B (Homo sapiens, UniProt Q96GD4); assay: Inhibition of AURKB (unknown origin) using FAM-labeled peptide substrate preincubated for 10 mins followed by substrate addition measured after 60 mins by caliper assay
Aurora kinase B, sequence (Q96GD4 whole entry): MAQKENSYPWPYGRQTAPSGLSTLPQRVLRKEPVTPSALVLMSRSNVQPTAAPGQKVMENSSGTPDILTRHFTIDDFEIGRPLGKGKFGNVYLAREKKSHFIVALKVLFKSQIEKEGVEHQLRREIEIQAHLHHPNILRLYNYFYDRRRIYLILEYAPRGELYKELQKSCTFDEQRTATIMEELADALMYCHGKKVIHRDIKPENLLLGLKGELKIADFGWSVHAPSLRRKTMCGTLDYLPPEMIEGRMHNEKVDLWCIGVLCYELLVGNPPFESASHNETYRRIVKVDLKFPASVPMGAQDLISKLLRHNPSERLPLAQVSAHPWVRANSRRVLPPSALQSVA

MDA-MB-231 [2] = assay: Induction of chromosome alignment defects in human MDA-MB-231 cells at 1 uM after 48 hrs by DAPI staining based immunofluorescence assay; format: functional, cell-based
MDA-MB-231 [3] = assay: Induction of aberrant spindle formation with tripolar and tetrapolar occurrence in human MDA-MB-231 cells at 1 uM after 48 hrs by DAPI staining based immunofluorescence assay; format: functional, cell-based
MDA-MB-231 [4] = assay: Inhibition of alpha-tubulin in human MDA-MB-231 cells assessed as abolishment of regular location of protein at 0.5 uM after 48 hrs by DAPI staining based immunofluorescence assay; format: cell-based

SMILES	IC50 (HeLa) [nM]	IC50 (MCF7) [nM]	IC50 (A-431) [nM]	IC50 (HCT-116) [nM]	IC50 (U-937) [nM]	IC50 (Aurora kinase A) [nM]	IC50 (MDA-MB-231 [1]) [nM]	IC50 (K562) [nM]	IC50 (Aurora kinase B) [nM]	Activity (MDA-MB-231 [2])	Activity (MDA-MB-231 [3])	inhibition (MDA-MB-231 [4])
Cc1cc(Nc2cc(N3CCN(C)CC3)nc(Nc3ccc4c(c3)OCO4)n2)n[nH]1	457	911	419	719	58.4	20	206	233	91.7	–	–	–
COc1cc(Nc2ncc3c(n2)-c2ccc(Cl)cc2C(c2c(F)cccc2OC)=NC3)ccc1C(=O)O	–	–	–	–	–	–	–	–	–	Active	Active	Active
COC(=O)c1ccc(Nc2nc(Nc3cc(C)[nH]n3)cc(N3CCN(C)CC3)n2)cc1OC	872	10300	1220	1140	545	67	872	762	442	–	–	–
Cc1cc(Nc2cc(N3CCN(C)CC3)nc(Nc3ccc(F)c(F)c3)n2)n[nH]1	438	1290	177	339	29.9	17	160	195	89.2	–	–	–
COC(=O)c1ccc(Nc2nc(Nc3cc(C)[nH]n3)cc(N3CCN(C)CC3)n2)cc1F	507	7630	375	688	94.2	35	238	393	145	–	–	–
Cc1cc(Nc2cc(N3CCN(C)CC3)nc(Nc3ccc(F)cc3)n2)n[nH]1	680	873	340	653	43.2	23	255	357	75.1	–	–	–
